In US8017557B2, “Benzodioxole derivatives as modulators of proteolytic activity in plants” (Endura S.p.A., priority 2002, dated 2011):
Where two headings read alike, the source gives them in different places.

How the values were obtained:
[1] = tested on: Bt toxin (Cry1Ac)
Method: An immunoenzymatic assay was used to determine the Bt levels at different stages of plant development. • a) Measured Bt toxin values; ordinate: Bt expressed as ppm; abscissa: days of plant culture and where different, plant tissue.
The assay was carried out on samples collected at different plant development stages, which were: 4, 35, 60, 85 days after sowing.
The ELISA Cry1Ab/Cry1Ac Plate Kit was obtained from Envirologix (Portland, Maine—USA). The assay was performed according to the Envirologix protocol with the following modifications: • 1. The cotton freeze-dried powder got from leaf or cotyledon tissues was used instead of the fresh and whole leaf tissue. • 2. The Bt toxin extraction from the cotton freeze-dried powder was done with a sample/buffer ratio of 1:25 (w/v). • 3. The extraction was made leaving the sample in the buffer for at least 4 hours at room temperature, instead of using the Envirologix Disposable Tissue Extractor. The extract was then clarified by centrifugation at 5,000×g for 5 min at room temperature.
Cotton seeds of the cv. Sicala V2i were previously rinsed in distilled water and then placed in equal number in suitable plastic boxes containing settled and sterile sand. Seeds were watered with equal volumes of distilled water and the culture boxes were then covered with a plastic film to avoid evaporation during germination, which was carried out in the dark for 4 days at 30° C. […] After 4 days, these sprouts were collected for testing, whereas the other sprouts were moved in suitable pots and located in the greenhouse at 24° C. during the day and 20° C. in the night.
Treatments were given out vaporizing the diluted formulation on the plants taking care to treat both leaves sides.
Two days after each treatment, a sample of the treated plants, and the correspondent controls, were collected and all leaves were frozen in liquid nitrogen and freeze dried. After this process, the material was powdered in a pestle and then stored in a dry box at room temperature.

[2] = tested on: carboxypeptidase activity in cotton sprouts; conditions: for absorbance at 280 nm, Exp. n° 1, PBO Treated Cotton Sprouts / absorbance at 280 nm, Exp. n° 2, PBO Treated Cotton Sprouts / absorbance at 280 nm, Mean, PBO Treated Cotton Sprouts / Carboxypeptidase Activity (U), PBO Treated Cotton Sprouts: pH 6.5; for absorbance at 280 nm, Exp. n° 1, PBO Treated Cotton Sprouts / absorbance at 280 nm, Exp. n° 2, PBO Treated Cotton Sprouts / absorbance at 280 nm, Mean, PBO Treated Cotton Sprouts / % difference of carboxypeptidase activity, treated vs untreated / Δ U (carboxypeptidase activity, untreated vs PBO treated) / Carboxypeptidase Activity (U), PBO Treated Cotton Sprouts: 4th day of germination, PBO 1% w/v
Method: The extent of proteolytic activity in cotton sprouts was measured at 30′, 60′, 90′ and […] after suspension of the acetonic powder in aqueous buffer at pH 6.5 by determining the absorbance at 280 nm in a quartz cuvette, after protein precipitation with TCA and removal by centrifugation.
Each series of analysis was performed in duplicate. The comparison between the values of carboxypeptidase activity of treated and untreated samples was done using the average value of each series of analysis.
The basic idea was to “freeze” the physiologic protein hydrolysis enzymatic activity and to re-establish the process simply solubilizing the proteolytic enzymatic system in suitable buffers, which were 0.1 M phosphate pH 6.5 and 0.1 M tris-HCl pH 7.7, for evaluating both the carboxypeptidase and the endopeptidase activities according to the method described by Hile et al. 1972; Funkhouser et al. 1980.
Cotton seeds (cv. Carmela) were obtained from “Semillas Battle”, Barcelona (E).
The seeds were previously rinsed in tap water and then imbibed with aeration in distilled water over night (Funkhouser, E. A. et al., Z. Pflanzenphysiol., 1980, 100, 319-324).
The plastic boxes containing seeds were covered by a plastic film and placed in a germinator in the dark for 4 days at 30° C. as described in Hile, J. N. and Dure, L. S. J. Biol. Chem., 1972, 247: 5034-5040.
The cotton sprouts of 4 days were collected and frozen in liquid nitrogen and freeze dried (Hile et al. 1972). After this process, the material was crushed in a pestle and freed from fibrous material and settled up to obtain a pretty homogeneous meal of about 0.5 mesh.
The meals were defatted using n-hexane (1:10 w/v) at room temperature and then treated with acetone at −20° C. to remove pigments and polyphenolic compounds, in this case mainly gossypol. The powders obtained were stored in a dry box at room temperature.
The acetonic powder (30 mg) was suspended in buffer (4 ml) and incubated at 37° C. for 30, 60, 90, 120 minutes. The proteolysis was stopped adding 1 ml of 12% trichloroacetic acid. In this case, the buffer used was 0.1 M phosphate pH 6.5 (Hile et al. 1972). The control was a suspension of the same sample prepared in the same way but, in this case, it was immediately deactivated, adding 1 ml of trichloroacetic acid. The trials with treated and untreated samples were carried out at the same time.
Proteins were precipitated with trichloroacetic acid and then removed by filtration, before with Whatman paper n. 4 and then by micro-filtration (Orange Scientific Braine I'Alleud, Belgium (Ø0.2 μm)). Finally, the hydrolyzed protein samples were analyzed as clear solutions by determining the absorbance at 280 nm in a quartz cuvette.
Each series of analysis was performed twice. The comparison between the values of carboxypeptidase activity of treated and untreated samples was done using the average value of each series of analysis.

[3] = Growth stage 4 days (plantlets)
[4] = Growth stage 35 days (cotyledons)
[5] = Time 0 (immediately deactivated)

CCCCOCCOCCOCc1cc2c(cc1CCC)OCO2 [PBO, 5-[[2-(2-Butoxyethoxy)ethoxy]methyl]-6-propyl-1,3-benzodioxole]
Bt content in PBO-treated samples vs untreated ([1]; 35, 60, 85 days after planting): significant lower Bt content
Bt content in PBO-treated samples vs untreated ([1]; 4 days): no difference
%: treated − control (Cry1Ac) [1, 3]: −4.823%
Cry1Ac ppm, cv V2i PBO treated [1, 3]: 44.60 ppm
Δ: treated − control (Cry1Ac) [1, 3]: −2.26 ppm
%: treated − control (Cry1Ac) [1, 4]: 9.149%
Cry1Ac ppm, cv V2i PBO treated [1, 4]: 66.57 ppm
Δ: treated − control (Cry1Ac) [1, 4]: 5.58 ppm
%: treated − control (Cry1Ac) ([1]; Growth stage 35 days (leaves)): 38.356%
Cry1Ac ppm, cv V2i PBO treated ([1]; Growth stage 35 days (leaves)): 45.45 ppm
Δ: treated − control (Cry1Ac) ([1]; Growth stage 35 days (leaves)): 12.6 ppm
%: treated − control (Cry1Ac) ([1]; Growth stage 60 days (leaves)): 16.629%
Cry1Ac ppm, cv V2i PBO treated ([1]; Growth stage 60 days (leaves)): 31.07 ppm
Δ: treated − control (Cry1Ac) ([1]; Growth stage 60 days (leaves)): 4.43 ppm
%: treated − control (Cry1Ac) ([1]; Growth stage 85 days (leaves)): 13.236%
Cry1Ac ppm, cv V2i PBO treated ([1]; Growth stage 85 days (leaves)): 31.91 ppm
Δ: treated − control (Cry1Ac) ([1]; Growth stage 85 days (leaves)): 3.73 ppm
amount of transgenic toxin after PBO treatment ([1]; cotton transgenic for the Bt CryI protein): higher than in transgenic untreated plants
proteolytic activity related to carboxypeptidase in treated samples ([2]; FIG. 4, treated vs untreated cotton sprouts): lower than in the untreated ones
absorbance at 280 nm, Exp. n° 1, PBO Treated Cotton Sprouts [2, 5]: 0.632
absorbance at 280 nm, Exp. n° 2, PBO Treated Cotton Sprouts [2, 5]: 0.729
absorbance at 280 nm, Mean, PBO Treated Cotton Sprouts [2, 5]: 0.68
% difference of carboxypeptidase activity, treated vs untreated ([2]; Time 30′): 55.7%
Δ U (carboxypeptidase activity, untreated vs PBO treated) ([2]; Time 30′): 0.083 U
Carboxypeptidase Activity (U), PBO Treated Cotton Sprouts ([2]; Time 30′): 0.066 U
absorbance at 280 nm, Exp. n° 1, PBO Treated Cotton Sprouts ([2]; Time 30′): 0.730
absorbance at 280 nm, Exp. n° 2, PBO Treated Cotton Sprouts ([2]; Time 30′): 0.763
absorbance at 280 nm, Mean, PBO Treated Cotton Sprouts ([2]; Time 30′): 0.746
% difference of carboxypeptidase activity, treated vs untreated ([2]; Time 60′): 39.3%
Δ U (carboxypeptidase activity, untreated vs PBO treated) ([2]; Time 60′): 0.081 U
Carboxypeptidase Activity (U), PBO Treated Cotton Sprouts ([2]; Time 60′): 0.125 U
absorbance at 280 nm, Exp. n° 1, PBO Treated Cotton Sprouts ([2]; Time 60′): 0.752
absorbance at 280 nm, Exp. n° 2, PBO Treated Cotton Sprouts ([2]; Time 60′): 0.858
absorbance at 280 nm, Mean, PBO Treated Cotton Sprouts ([2]; Time 60′): 0.805
% difference of carboxypeptidase activity, treated vs untreated ([2]; Time 90′): 43.5%
Δ U (carboxypeptidase activity, untreated vs PBO treated) ([2]; Time 90′): 0.087 U
Carboxypeptidase Activity (U), PBO Treated Cotton Sprouts ([2]; Time 90′): 0.113 U
absorbance at 280 nm, Exp. n° 1, PBO Treated Cotton Sprouts ([2]; Time 90′): 0.880
absorbance at 280 nm, Exp. n° 2, PBO Treated Cotton Sprouts ([2]; Time 90′): 0.838
absorbance at 280 nm, Mean, PBO Treated Cotton Sprouts ([2]; Time 90′): 0.859
% difference of carboxypeptidase activity, treated vs untreated ([2]; Time 120′): 61.0%
Δ U (carboxypeptidase activity, untreated vs PBO treated) ([2]; Time 120′): 0.158 U
Carboxypeptidase Activity (U), PBO Treated Cotton Sprouts ([2]; Time 120′): 0.101 U
absorbance at 280 nm, Exp. n° 1, PBO Treated Cotton Sprouts ([2]; Time 120′): 0.775
absorbance at 280 nm, Exp. n° 2, PBO Treated Cotton Sprouts ([2]; Time 120′): 0.787
absorbance at 280 nm, Mean, PBO Treated Cotton Sprouts ([2]; Time 120′): 0.781
